Results reported in patent publication US4230854A, “Analogues of ergot alkaloids” (Societa Farmaceutici Italia S.p.A., priority 1977, dated 1980).

Key:
[1] = system: spasmogenic effect of epinephrine on the isolated guineapig seminal vescicle; assay: adrenergic blockade in vitro: receptor blockade against the spasmogenic effect of epinephrine on the isolated guineapig seminal vescicle; type: biochemical; conditions: concentration producing 50% inhibition of the effect of epinephrine, estimated graphically
Description: (a) receptors blockade was determined against the spasmogenic effect of
epinephrine on the isolated guineapig seminal vescicle according to
Brugger J. (Helv.Physiol. Acta 3, 117, 1945). Concentration producing 50%
inhibition of the effect of the agonist were estimated graphically for […]

[2] = acute toxicity (LD50) in mice; conditions: mouse, in vivo, iv, standard procedure
Description: (c) LD50 was determined in mice according to the standard procedure.

[3] = system: lethal effect of 0.2 mg/Kg epinephrine; assay: adrenergic blockade in vivo: receptor blockade in rats, protection from the lethal effect of epinephrine; conditions: Rattus norvegicus, iv, 5 min, dose protecting 50% of animals from the lethal effect of 0.2 mg/Kg epinephrine injected i.v. 5 min later, estimated graphically
Description: (b) receptor blockade was determined in rats according to Luduena F.P. et
al. (Arch. Int. Pharmacodyn CXXII, 111, 1959). ED50 is the
graphically estimated dose of antagonist protecting 50% of animals from
the lethal effect of 0.2 mg/Kg epinephrine, injected i.v. 5 min later.

SMILES	adrenergic blockade In vitro IC50 [1] [µg/mL]	LD50 [2] [mg/kg]	ED50 [3] [mg/kg]
CN1C[C@H](C(=O)N[C@]2(C)O[C@@]3(O)[C@@H]4CCCN4C(=O)[C@H](Cc4ccccc4)N3C2=O)C[C@@H]2c3cccc4[nH]cc(c34)C[C@H]21 [Dihydroergotamine, reference compound]	0.02	118	0.08
CN1C[C@H](C(=O)N[C@]2(C)O[C@@]3(O)[C@@H]4CCCN4C(=O)[C@H](Cc4ccccc4)N3C2=O)C=C2c3cccc4[nH]cc(c34)C[C@H]21 [Ergotamine, reference compound]	0.07	70	0.2
CC(C)[C@@]1(NC(=O)[C@@H]2C[C@@H]3c4cccc5[nH]cc(c45)C[C@H]3N(C)C2)O[C@@]2(O)[C@@H]3CCCN3C(=O)[C@H](Cc3ccc(Cl)cc3)N2C1=O [5'-debenzyl-5'-p-chlorobenzyl dihydroergocristine]	0.03	190	0.02
CN1C[C@H](C(=O)N[C@]2(C)O[C@@]3(O)[C@@H]4CCCN4C(=O)[C@H](Cc4ccc(Cl)cc4)N3C2=O)C=C2c3cccc4[nH]cc(c34)C[C@H]21 [5'-debenzyl-5'-p-chlorobenzyl ergotamine]	0.03	100	0.1
CN1C[C@H](C(=O)N[C@]2(C)O[C@@]3(O)[C@@H]4CCCN4C(=O)[C@H](Cc4ccc(Cl)cc4)N3C2=O)C[C@@H]2c3cccc4[nH]cc(c34)C[C@H]21 [5'-debenzyl-5'-p-chlorobenzyl dihydroergotamine]	0.02	150	0.05
CC(C)[C@@]1(NC(=O)[C@@H]2C[C@@H]3c4cccc5[nH]cc(c45)C[C@H]3N(C)C2)O[C@@]2(O)[C@@H]3CCCN3C(=O)[C@H](Cc3ccccc3)N2C1=O [Dihydroergocristine, reference compound]		174	0.03
